This assay addresses T1, TREK-1 (Homo sapiens, UniProt O95069).
T1 sequence (O95069 1-426): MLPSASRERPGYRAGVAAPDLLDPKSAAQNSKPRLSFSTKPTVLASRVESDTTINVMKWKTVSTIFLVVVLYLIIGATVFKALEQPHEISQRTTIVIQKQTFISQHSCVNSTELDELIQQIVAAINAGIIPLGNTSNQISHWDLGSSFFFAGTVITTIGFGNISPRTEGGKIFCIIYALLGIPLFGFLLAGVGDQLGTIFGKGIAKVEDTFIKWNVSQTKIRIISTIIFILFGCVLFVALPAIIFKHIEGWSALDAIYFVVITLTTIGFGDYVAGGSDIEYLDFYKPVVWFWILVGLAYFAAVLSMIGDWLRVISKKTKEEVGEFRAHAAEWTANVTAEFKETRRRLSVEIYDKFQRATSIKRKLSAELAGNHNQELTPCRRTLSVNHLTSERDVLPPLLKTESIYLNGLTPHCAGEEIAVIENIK
Put plainly: Tl+ flux fluorescence. Particulars: inhibitor; 1.8 µM, 10 min pretreatment; pH 7.3. Type of assay: cell-based.

SMILES strings stand for the structures.

Take `CCCCC[C@H](O)/C=C/[C@H]1CC[C@H](O)[C@@H]1C/C=C\CCCC(=O)O` [11-deoxy prostaglandin F2α]: the “Tl+ flux fluorescence (Thallos), T-REx-HEK293” value is given as “we observed that 11-deoxy prostaglandin F2α inhibited TREK-1 channels”.
